Reference: the NIST ThermoML archive (doi:10.1016/j.jct.2004.07.008)

Experiment: xn = mol fraction of the nth substance listed
Details: 100 kPa, Liquid

CCNCC [diethylamine] + O
mass density [kg/m3]
Details | 278.15 K | 288.15 K | 293.15 K | 298.15 K | 308.15 K
x1 = 0.0006 | 999.491 | 998.664 | 997.751 | 996.626 | 993.562
x1 = 0.0024 | 997.912 | 997.039 | 996.154 | 994.988 | 991.942
x1 = 0.0035 | 996.932 | 996.037 | 995.136 | 993.969 | 990.903
x1 = 0.0044 | 996.139 | 995.23 | 994.323 | 993.151 | 990.065
x1 = 0.0056 | 995.225 | 994.285 | 993.371 | 992.182 | 989.066
x1 = 0.0064 | 994.57 | 993.602 | 992.679 | 991.472 | 988.353
x1 = 0.0081 | 993.249 | 992.212 | 991.279 | 990.04 | 986.873
x1 = 0.0097 | 992.04 | 990.934 | 989.98 | 988.714 | 985.476
x1 = 0.0172 | 987.17 | 985.63 | 984.539 | 983.09 | 979.496
x1 = 0.0291 | 980.983 | 978.376 | 976.96 | 975.088 | 970.666
x1 = 0.04 | 976.381 | 972.612 | 970.596 | 968.411 | 962.812
x1 = 0.0799 | 957.078 | 949.316 | 945.543 | 941.882 | 936.416
x1 = 0.0962 | – | 939.288 | – | 932.747 | 927.169
x1 = 0.1023 | – | 935.289 | – | 928.614 | 923.171
x1 = 0.1157 | – | 927.131 | – | 918.262 | –
x1 = 0.1191 | 933.215 | 925.183 | 920.953 | 916.971 | 910.193
x1 = 0.1717 | 905.317 | 896.85 | 892.377 | 888.178 | 883.177
x1 = 0.229 | – | 871.09 | – | – | –
x1 = 0.2382 | 876.611 | 867.217 | 863.096 | 858.163 | 848.844
x1 = 0.2939 | 859.045 | – | 842.233 | 837.568 | 827.974
x1 = 0.3003 | 857.537 | 844.712 | 839.967 | 835.41 | 825.737
x1 = 0.3501 | – | 829.202 | 824.477 | 819.781 | 810.104
x1 = 0.3558 | 838.534 | – | 822.73 | 817.933 | 808.149
x1 = 0.3911 | – | – | – | 809.086 | –
x1 = 0.4057 | – | 814.027 | 809.021 | – | 794.354
x1 = 0.4407 | 815.342 | – | – | 795.926 | –
x1 = 0.4625 | 810.256 | 799.75 | 795.056 | 789.779 | 779.967
x1 = 0.4844 | 805.352 | – | – | 784.888 | –
x1 = 0.5091 | 799.695 | – | – | – | 769.213
x1 = 0.523 | – | – | 781.055 | – | 766.718
x1 = 0.5287 | – | – | – | 775.014 | –
x1 = 0.6144 | 779.133 | 768.288 | 763.538 | 759.804 | 748.753
x1 = 0.6304 | 775.979 | – | 760.21 | – | 745.249
x1 = 0.7017 | 763.313 | – | 747.769 | 742.589 | 732.049
x1 = 0.7022 | – | 752.772 | – | 742.461 | 732.247
x1 = 0.726 | – | – | 742.965 | – | –
x1 = 0.7549 | – | – | 738.917 | 733.676 | 723.048
x1 = 0.7771 | 751.837 | – | 735.541 | 730.331 | 719.687
x1 = 0.805 | 749.039 | 737.02 | 731.853 | 726.558 | –
x1 = 0.8523 | 741.596 | 729.358 | 724.287 | 718.777 | 708.199
x1 = 0.8755 | 735.261 | – | – | 715.631 | –
x1 = 0.8822 | – | 725.559 | 719.965 | 714.728 | –
x1 = 0.8941 | – | – | 718.394 | 713.135 | 702.403
x1 = 0.9019 | 732.413 | – | – | 712.05 | –
x1 = 0.931 | – | 718.71 | 713.312 | 708.033 | –
x1 = 0.941 | 726.848 | – | 712.088 | 706.818 | 696.061
x1 = 0.9589 | 724.66 | – | – | 704.314 | –
x1 = 0.9727 | – | – | 708.394 | 703.131 | 692.387
x1 = 0.979 | 721.447 | – | – | 701.729 | –
x1 = 1 | 719.94 | 709.52 | 704.59 | 698.97 | 688.29
